In patent US20240109930A1, “TRIAZOLYL-METHYL SUBSTITUTED ALPHA-D-GALACTOPYRANOSIDE DERIVATIVES” (Idorsia Pharmaceuticals Ltd, priority 2021, published 2024) one finds IC50 data, which are given here for 29 molecules.

Test [1] addresses human Gal-3 (hGal-3) (Homo sapiens (Human), UniProt P17931). The test can be described thus: Competitive binding assay: biotinylated hGal-3 binding to microplate-adsorbed asialofetuin (ASF). To be noted: IC50 values from several measurements given as geomean. In short, it runs like this:
(§1)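 Biotinylated hGal-3 or hGal-1 (preferably cysteine-free Cys→Ser mutant), 300–1000 ng/mL, competes with compound for ASF-coated wells for 3 h at 4 °C. Bound lectin detected with streptavidin-peroxidase (80 ng/mL, 1 h, 4 °C) and ABTS by absorbance; IC50 reported as geomean of several runs.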

In test [2] the target is human Gal-1 (hGal-1) (Homo sapiens, UniProt P09382, C131S/C17S/C43S/C61S/C89S). The test is described as follows: Competitive binding assay: biotinylated hGal-1 binding to microplate-adsorbed asialofetuin (ASF). To be noted: IC50 values from several measurements given as geomean. In short, it runs like this: as §1

Sequence of human Gal-3 (hGal-3) (P17931 whole entry): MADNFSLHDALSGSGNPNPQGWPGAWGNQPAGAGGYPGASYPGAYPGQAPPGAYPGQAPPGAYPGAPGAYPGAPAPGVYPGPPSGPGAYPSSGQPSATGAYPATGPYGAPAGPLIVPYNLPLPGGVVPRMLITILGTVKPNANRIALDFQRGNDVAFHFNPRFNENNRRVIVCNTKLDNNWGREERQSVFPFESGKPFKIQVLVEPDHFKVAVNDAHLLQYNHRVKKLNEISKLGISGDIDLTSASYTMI

Regarding `CO[C@@H]1[C@@H](n2cc(-c3ccc(C)c(F)c3F)nn2)[C@@H](O)[C@@H](CO)O[C@@H]1Cc1cn(C23CCC(N)(CC2)CC3)nn1` [Ex 1.2.39.], the IC50 in test [1] was 60 nM; in test [2] it was 11000 nM.
For `CO[C@@H]1[C@@H](n2cc(-c3ccc(Br)c(F)c3F)nn2)[C@@H](O)[C@@H](CO)O[C@@H]1Cc1cn(C2(CF)CC2)nn1` [Ex 4.1.46., (2R,3R,4S,5R,6R)-4-(4-(4-bromo-2,3-difluorophenyl)-1H-1,2,3-triazol-1-yl)-6-((1-(1-(fluoromethyl)cyclopropyl)-1H-1,2,3-triazol-4-yl)methyl)-2-(hydroxymethyl)-5-methoxytetrahydro-2H-pyran-3-ol], the IC50 in test [1] came out at 30 nM; in test [2] it was 1940 nM.
Taken in the same sequence, the figures for `CO[C@@H]1[C@@H](n2cc(-c3ccc(C)c(F)c3F)nn2)[C@@H](O)[C@@H](CO)O[C@@H]1Cc1cn(C23CCC(O)(CC2)CC3)nn1` [Ex 1.1.8.] were 50 nM and 4010 nM.
Take `CO[C@@H]1[C@@H](n2cc(-c3ccc(F)c(F)c3F)nn2)[C@@H](O)[C@@H](CO)O[C@@H]1Cn1cc(C2(C)CCC2)nn1` [Ex 3.2.13.]: the IC50 in test [1] was 80 nM; in test [2] it was 670 nM.
`CCC(C)(CC)n1cc(C[C@H]2O[C@H](CO)[C@H](O)[C@H](n3cc(-c4ccc(Cl)c(F)c4F)nn3)[C@H]2OC)nn1` [Ex 2.1.50.]: the figures for the IC50 in test [1] and in test [2] were 70 nM and 1600 nM, respectively.
`CO[C@@H]1[C@@H](n2cc(-c3ccc(F)c(F)c3F)nn2)[C@@H](O)[C@@H](CO)O[C@@H]1Cn1cc(C2(C)CC2)nn1` [Ex 3.2.23.]: the IC50 came to 80 nM in test [1] and 300 nM in test [2].
Taken in the same sequence, the figures for `CO[C@@H]1[C@@H](n2cc(-c3ccc(Cl)c(F)c3F)nn2)[C@@H](O)[C@@H](CO)O[C@@H]1Cc1cn(C2(C(F)(F)F)CCC2)nn1` [Ex 2.1.55.] were 20 nM and 620 nM.
Take `CO[C@@H]1[C@@H](n2cc(-c3ccc(Cl)c(F)c3F)nn2)[C@@H](O)[C@@H](CO)O[C@@H]1Cc1cn(C2(C)CCC2)nn1` [Ex 2.1.13.]: the IC50 in test [1] was 20 nM; in test [2] it was 690 nM.
Take `CO[C@@H]1[C@@H](n2cc(-c3ccc(Br)c(F)c3F)nn2)[C@@H](O)[C@@H](CO)O[C@@H]1Cc1cn(C23CC(C(F)(F)F)(C2)C3)nn1` [Ex 4.1.24.]: the IC50 in test [1] stood at 130 nM; in test [2] it was 28400 nM.
Taken in the same sequence, the figures for `CO[C@@H]1[C@@H](n2cc(-c3ccc(Br)c(F)c3F)nn2)[C@@H](O)[C@@H](CO)O[C@@H]1Cc1cn(C2(C)CCC2)nn1` [Ex 4.1.13.] were 20 nM and 2200 nM.
For `CO[C@@H]1[C@@H](n2cc(-c3ccc(C)c(F)c3F)nn2)[C@@H](O)[C@@H](CO)O[C@@H]1Cn1cc(C(C)(C)O)nn1` [Ex 1.2.34., (2R,3R,4S,5R,6R)-4-(4-(2,3-Difluoro-4-methylphenyl)-1H-1,2,3-triazol-1-yl)-2-(hydroxymethyl)-6-((4-(2-hydroxypropan-2-yl)-1H-1,2,3-triazol-1-yl)methyl)-5-methoxytetrahydro-2H-pyran-3-ol] the same measures were 80 nM and 5330 nM.
As for `CO[C@@H]1[C@@H](n2cc(-c3ccc(Cl)c(F)c3F)nn2)[C@@H](O)[C@@H](CO)O[C@@H]1Cc1cn([C@@H]2CCCC[C@H]2F)nn1` [Example 2.1.81.C, (2R,3R,4S,5R,6R)-4-(4-(4-chloro-2,3-difluorophenyl)-1H-1,2,3-triazol-1-yl)-6-((1-((1R,2R)-2-fluorocyclohexyl)-1H-1,2,3-triazol-4-yl)methyl)-2-(hydroxymethyl)-5-methoxytetrahydro-2H-pyran-3-ol], the IC50 in test [1] came out at 60 nM; in test [2], 2920 nM.
Taken in the same sequence, the figures for `CO[C@@H]1[C@@H](n2cc(-c3ccc(Cl)c(F)c3F)nn2)[C@@H](O)[C@@H](CO)O[C@@H]1Cc1cn(C2(C(F)(F)F)CCOC2)nn1` (single isomer, unassigned) [Example 2.1.77.B] were 30 nM and 590 nM.
Taken in the same sequence, the figures for `CO[C@@H]1[C@@H](n2cc(-c3ccc(Cl)c(F)c3F)nn2)[C@@H](O)[C@@H](CO)O[C@@H]1Cc1cn(C2CCCCC2(F)F)nn1` (single isomer, unassigned) [Example 2.1.80.B] were 30 nM and 1740 nM.
Taken in the same sequence, the figures for `CO[C@@H]1[C@@H](n2cc(-c3ccc(Br)c(F)c3F)nn2)[C@@H](O)[C@@H](CO)O[C@@H]1Cn1cc(C2(O)CCOCC2)nn1` [Ex 4.2.35.] were 70 nM and 4600 nM.
`COC1=C(N2CC(c3ccc(Cl)c(F)c3F)NN2)C(O)=C(CO)O[C@@H]1Cn1cc(C23CCC(NC(=O)OC(C)(C)C)(CC2)CC3)nn1` (stereo partly shown) [Ex 2.2.37.]: the figures for the concentration for half-maximal inhibition (IC50) in test [1] and in test [2] were 70 nM and 13100 nM, respectively.
`CO[C@@H]1[C@@H](n2cc(-c3ccc(Cl)c(F)c3F)nn2)[C@@H](O)[C@@H](CO)O[C@@H]1Cc1cn(C2(C(F)(F)F)COC2)nn1` [Ex 2.1.58., (2R,3R,4S,5R,6R)-4-(4-(4-chloro-2,3-difluorophenyl)-1H-1,2,3-triazol-1-yl)-2-(hydroxymethyl)-5-methoxy-6-((1-(3-(trifluoromethyl)oxetan-3-yl)-1H-1,2,3-triazol-4-yl)methyl)tetrahydro-2H-pyran-3-ol [1-(1,2,3-tri-deoxy-2-methoxy-3-[4-(4-chloro-2,3-difluorophenyl)-1H-1,2,3-triazol-1-yl]-α-D-galacto-pyranose)-1-(1-(3-trifluoromethyl-3-oxetanyl)-1H-triazol-4-yl)-methane]]: the IC50 in test [1] was 20 nM; in test [2], 470 nM.
Taken in the same sequence, the figures for `CO[C@@H]1[C@@H](n2cc(-c3ccc(Br)c(F)c3F)nn2)[C@@H](O)[C@@H](CO)O[C@@H]1Cc1cn(C23COC(C)(C2)C3)nn1` [Ex 4.1.59., (2R,3R,4S,5R,6R)-4-(4-(4-bromo-2,3-difluorophenyl)-1H-1,2,3-triazol-1-yl)-2-(hydroxymethyl)-5-methoxy-6-((1-(1-methyl-2-oxabicyclo[2.1.1]hexan-4-yl)-1H-1,2,3-triazol-4-yl)methyl)tetrahydro-2H-pyran-3-ol] were 30 nM and 2030 nM.
Take `CO[C@@H]1[C@@H](n2cc(-c3ccc(Br)c(F)c3F)nn2)[C@@H](O)[C@@H](CO)O[C@@H]1Cc1cn([C@H]2CCCC2(F)F)nn1` [Example 4.1.64.B, (2R,3R,4S,5R,6R)-4-(4-(4-bromo-2,3-difluorophenyl)-1H-1,2,3-triazol-1-yl)-6-((1-((S)-2,2-difluorocyclopentyl)-1H-1,2,3-triazol-4-yl)methyl)-2-(hydroxymethyl)-5-methoxytetrahydro-2H-pyran-3-ol]: the IC50 in test [1] turned out to be 50 nM; in test [2], 1810 nM.
Taken in the same sequence, the figures for `CO[C@@H]1[C@@H](n2cc(-c3ccc(Cl)c(F)c3F)nn2)[C@@H](O)[C@@H](CO)O[C@@H]1Cc1cn(C2(C)CCOC2)nn1` (stereo partly shown) [Ex 2.1.42.] were 40 nM and 1830 nM.
For `CO[C@@H]1[C@@H](n2cc(-c3ccc(Cl)c(F)c3F)nn2)[C@@H](O)[C@@H](CO)O[C@@H]1Cc1cn(C2[C@H]3CCC[C@@H]23)nn1` (stereo partly shown) [Ex 2.1.20.] the same measures were 60 nM and 2060 nM.
For `CO[C@@H]1[C@@H](n2cc(-c3ccc(C)c(F)c3F)nn2)[C@@H](O)[C@@H](CO)O[C@@H]1Cn1cc(C2(CO)CC2)nn1` [Ex 1.2.4.] the same measures were 40 nM and 2460 nM.
On to `CO[C@@H]1[C@@H](n2cc(-c3ccc(Cl)c(F)c3F)nn2)[C@@H](O)[C@@H](CO)O[C@@H]1Cc1cn(C2(C(F)F)CCOC2)nn1` (single isomer, unassigned) [Example 2.1.78.A], for which the half-inhibitory concentration (IC50) in test [1] stood at 40 nM; in test [2] it was 360 nM.
For `CO[C@@H]1[C@@H](n2cc(-c3ccc(C)c(F)c3F)nn2)[C@@H](O)[C@@H](CO)O[C@@H]1Cc1cn(C2CC3(COC3)C2)nn1` [Ex 1.1.16.] the same measures were 50 nM and 3690 nM.
Taken in the same sequence, the figures for `CO[C@@H]1[C@@H](n2cc(-c3ccc(Br)c(F)c3F)nn2)[C@@H](O)[C@@H](CO)O[C@@H]1Cc1cn(C2(CF)CCC2)nn1` [Ex 4.1.40., (2R,3R,4S,5R,6R)-4-(4-(4-bromo-2,3-difluorophenyl)-1H-1,2,3-triazol-1-yl)-6-((1-(1-(fluoromethyl)cyclobutyl)-1H-1,2,3-triazol-4-yl)methyl)-2-(hydroxymethyl)-5-methoxytetrahydro-2H-pyran-3-ol] were 60 nM and 1030 nM.
For `CO[C@@H]1[C@@H](n2cc(-c3ccc(Cl)c(F)c3F)nn2)[C@@H](O)[C@@H](CO)O[C@@H]1Cc1cn(C2(C(F)(F)F)CCC(F)(F)CC2)nn1` [Ex 2.1.71., (2R,3R,4S,5R,6R)-4-(4-(4-chloro-2,3-difluorophenyl)-1H-1,2,3-triazol-1-yl)-6-((1-(4,4-difluoro-1-(trifluoromethyl)cyclohexyl)-1H-1,2,3-triazol-4-yl)methyl)-2-(hydroxymethyl)-5-methoxytetrahydro-2H-pyran-3-ol] the same measures were 50 nM and 670 nM.
`CO[C@@H]1[C@@H](n2cc(-c3ccc(Cl)c(F)c3F)nn2)[C@@H](O)[C@@H](CO)O[C@@H]1Cc1cn(C2(CO)CCC2)nn1` [Ex 2.1.11.]: the IC50 in test [1] is 50 nM; in test [2], 2510 nM.
For `CO[C@@H]1[C@@H](n2cc(-c3ccc(F)c(F)c3F)nn2)[C@@H](O)[C@@H](CO)O[C@@H]1Cc1cn(C23COC(C)(C2)C3)nn1` [Ex 3.1.59.], the IC50 in test [1] was 40 nM; in test [2] it was 520 nM.
For `CO[C@@H]1[C@@H](n2cc(-c3ccc(Cl)c(F)c3F)nn2)[C@@H](O)[C@@H](CO)O[C@@H]1Cc1cn(C23CC(F)(C2)C3)nn1` [Ex 2.1.25.] the same measures were 50 nM and 1960 nM.
